The target of assay [1] is T1, SMOX (Homo sapiens (Human), UniProt Q9NWM0). The assay can be described thus: Cellular Thermal Shift Assay (CETSA) with alphaLISA detection of intact SMOX in A549 cells. The format is cell-based. The conditions noted are these: 1 hour compound incubation at 37° C., heated to 55° C. for 5 minutes. From the text:
The Cellular Thermal Shift Assay (CETSA) is a biophysical assay based on the principle of ligand-induced thermal stabilization of target proteins, meaning that a protein denaturing temperature will change upon ligand interaction. Thus, by heating samples (i.e. cells, ex vivo samples) to different temperatures, and quantifying conformationally intact proteins we can detect compound-protein interactions after compound treatment. CETSA allows direct monitoring of ligand binding to a specific target (target engagement). In our study, we have developed a suitable detection system that will detect intact SMOX using the alphaLISA. […] The detection of compound -SMOX ligand binding is performed using A549 cells. This adenocarcinoma human alveolar basal epithelial cell line expresses high levels of SMOX. Their use has been widely reported in the literature with respect to the investigation of the SMOX pathway. Using SMOX high-expressing cells with CETSA and alphaLISA systems provides the optimal platform for screening small molecules for SMOX inhibition.
A549 cells were seeded at a density of 0.05-0.1×10^6 cells/mL in T175 flasks and cultured in 25 mL of culture medium consisting in RPMI 1640 medium (Gibco) supplemented with 10% fetal bovine serum (Gibco). Cells were passaged twice per week and used for CETSA assays before reaching confluency. One day prior to the CETSA cells were seeded in 384-well white assay plates (Corning) at 15000 cells per well. Briefly, cells were washed with PBS (Life Technologies Europe BV) and dissociated by adding 2 mL TrypLE™ Select (Life Technologies Europe BV). After 5 min at 37° C., cells were resuspended in culture medium, counted using a ViCell XR cell counter (ViCell) and seeded in the 384-well plates.
Compounds were pre-diluted in PBS to a final concentration of […] and 1% DMSO and serially diluted in PBS 1% DMSO. For compound-cell incubation, medium in the 384 well plates was replaced with 30 μL of serially diluted compounds. After incubation at 37° C. for 1 hour the liquid was removed and plates were heated to 55° C. for 5 minutes and then transferred to ice for 5 minutes. After the cooling step, cells were lysed by adding 15 μL 1× alphaLISA-buffer (Perkin Elmer) containing anti-SMOX monoclonal antibody #2 and anti-SMOX Fab-fragment #33 mixture at a concentration of 5 and 0.5 nM respectively. After one hour at RT, 5 μL anti-6×His alphaLISA acceptor beads (50 mg/L, AL128C, Perkin Elmer) were added to the wells followed by an additional incubation of one hour at RT. Then 5 μL anti-rabbit IgG alpha donor beads (200 mg/L was added to the wells. After one hour incubation at RT the alpha signal was read using an alpha compatible reader. MDL75257 (M2949, Sigma) was used as positive control for compound-SMOX interaction. Compound-SMOX interaction is detected through the comparison of the high alpha signal of the negative control with the much lower signal of the wells that contain SMOX binding compounds.

The target in a further assay is hPAOX (Homo sapiens (Human), UniProt Q6QHF9). Kind of assay: Human PAOX assay (HyPerBlu chemiluminescent detection of hydrogen peroxide). The format is biochemical. The note with it: 60 pM recombinant PAOX, 20 μM N-acetylspermine substrate. In outline: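 His-tagged recombinant PAOX expressed in sf9 insect cells was used at 60 pM, with 20 μM N-acetylspermine as substrate. Hydrogen peroxide formed by the reaction was detected by chemiluminescence from a boronate probe (HyPerBlu). Inhibition appears as lower luminescence.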
Sequence of hPAOX (Q6QHF9 whole entry): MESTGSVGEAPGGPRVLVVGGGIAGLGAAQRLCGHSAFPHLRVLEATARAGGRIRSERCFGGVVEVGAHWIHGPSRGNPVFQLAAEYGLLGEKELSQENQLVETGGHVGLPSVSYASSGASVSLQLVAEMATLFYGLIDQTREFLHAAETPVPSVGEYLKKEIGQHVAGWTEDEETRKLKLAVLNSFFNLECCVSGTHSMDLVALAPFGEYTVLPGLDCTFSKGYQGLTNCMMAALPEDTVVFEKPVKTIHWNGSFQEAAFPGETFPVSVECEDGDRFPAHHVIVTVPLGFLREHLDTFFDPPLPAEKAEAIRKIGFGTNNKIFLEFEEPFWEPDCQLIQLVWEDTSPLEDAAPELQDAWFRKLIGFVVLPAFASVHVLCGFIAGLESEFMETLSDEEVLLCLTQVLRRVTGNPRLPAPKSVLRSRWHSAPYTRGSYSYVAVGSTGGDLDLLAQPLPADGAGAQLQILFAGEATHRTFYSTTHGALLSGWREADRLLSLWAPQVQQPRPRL

Assay [2] concerns the target T1, SMOX. The assay can be described thus: Human SMOX assay (HyPerBlu chemiluminescent detection of hydrogen peroxide). The note with it: 2.5 nM full length hSMOX, spermine substrate, 1 h at room temperature, luminescence read; read-out: SMOx_IC50. The format is biochemical. The gist of the method:
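Full-length N-His human SMOX (2.5 nM, E. coli-expressed) was incubated 1 h at room temperature with 30 µM spermine, 11-point compound dilutions and 1.25% DMSO in pH 7.4 HEPES/NaCl/EGTA buffer. H2O2 was detected by HyPerBlu chemiluminescence after 30 min, and IC50 came from dose–response fits.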

Structures are written as SMILES. Structures can show the parent of a compound that is named as a salt.

T1 sequence (Q9NWM0 whole entry): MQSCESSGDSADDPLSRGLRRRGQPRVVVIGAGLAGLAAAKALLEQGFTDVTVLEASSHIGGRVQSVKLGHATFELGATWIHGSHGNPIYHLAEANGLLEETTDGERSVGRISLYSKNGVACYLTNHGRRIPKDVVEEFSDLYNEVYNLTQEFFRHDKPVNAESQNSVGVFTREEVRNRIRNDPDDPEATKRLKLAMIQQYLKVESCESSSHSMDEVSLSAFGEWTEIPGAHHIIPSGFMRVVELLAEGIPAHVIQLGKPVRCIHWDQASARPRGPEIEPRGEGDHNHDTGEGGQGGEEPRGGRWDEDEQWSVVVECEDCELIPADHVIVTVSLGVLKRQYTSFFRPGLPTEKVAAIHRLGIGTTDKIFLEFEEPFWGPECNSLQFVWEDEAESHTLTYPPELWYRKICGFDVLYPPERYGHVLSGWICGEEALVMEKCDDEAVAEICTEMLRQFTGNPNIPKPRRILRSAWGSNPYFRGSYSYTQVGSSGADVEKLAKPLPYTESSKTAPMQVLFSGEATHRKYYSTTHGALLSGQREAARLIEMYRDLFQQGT

Turning to `Cn1ccnc1CCCNC(=O)c1cc2nc(-c3ccccc3)cc(-c3ccccc3)n2n1` [Example 1, N-(3-(1-Methyl-1H-imidazol-2-yl)propyl)-5,7-diphenylpyrazolo[1,5-a]pyrimidine-2-carboxamide], at SMOX [1], the “SMOx % recovery CETSA” value was 12%. The values for the IC50 at hPAOX and on SMOX [2] were 397 nM and 46 nM, respectively.
The matching figures for `Cc1nccn1CCCNC(=O)c1cc2nc(-c3ccccc3)cc(-c3ccccc3)n2n1` [Example 2, N-(3-(2-Methyl-1H-imidazol-1-yl)propyl)-5,7-diphenylpyrazolo[1,5-a]pyrimidine-2-carboxamide]: 26%, 942 nM and 45 nM.
The matching figures for `O=C(NCCn1ccnc1)c1cc2nc(-c3ccccc3)cc(-c3ccccc3)n2n1` [Example 12, N-(2-(1H-Imidazol-1-yl)ethyl)-5,7-diphenylpyrazolo[1,5-a]pyrimidine-2-carboxamide]: 0%, 233 nM and 231 nM.
On the same counts, the results for `CCN1CCC[C@@H]1CNC(=O)c1cc2nc(-c3ccccc3)cc(-c3ccccc3)n2n1` [Example 15, (R)—N-((1-Ethylpyrrolidin-2-yl)methyl)-5,7-diphenylpyrazolo[1,5-a]pyrimidine-2-carboxamide] are 4%, 6320 nM and 192 nM.
With `CN(C)CCCNC(=O)c1cc2nc(-c3ccccc3)cc(-c3ccccc3)n2n1` [Example 18, N-(3-(Dimethylamino)propyl)-5,7-diphenylpyrazolo[1,5-a]pyrimidine-2-carboxamide], on SMOX [1], the “SMOx % recovery CETSA” value is recorded as 0%. The IC50 was 680 nM on hPAOX and 161 nM at SMOX [2].
The matching figures for `CN1CCC(CNC(=O)c2cc3nc(-c4ccccc4)cc(-c4ccccc4)n3n2)C1` (stereo not drawn) [Example 19, N-((1-Methylpyrrolidin-3-yl)methyl)-5,7-diphenylpyrazolo[1,5-a]pyrimidine-2-carboxamide]: 2%, 307 nM and 158 nM.
For the molecule `O=C(NCC1CCc2nccn2C1)c1cc2nc(-c3ccccc3)cc(-c3ccccc3)n2n1` (stereo not drawn) [Example 20, 5,7-Diphenyl-N-((5,6,7,8-tetrahydroimidazo[1,2-a]pyridin-6-yl)methyl)pyrazolo[1,5-a]pyrimidine-2-carboxamide], the “SMOx % recovery CETSA” value at SMOX [1] was 10%. The IC50 at hPAOX is 306 nM; on SMOX [2], 65 nM.
The matching figures for `CN1CCC(C)(CNC(=O)c2cc3nc(-c4ccccc4)cc(-c4ccccc4)n3n2)C1` (stereo not drawn) [Example 21, N-((1,3-Dimethylpyrrolidin-3-yl)methyl)-5,7-diphenylpyrazolo[1,5-a]pyrimidine-2-carboxamide]: 2%, 8610 nM and 117 nM.
The matching figures for `CN1CC(NC(=O)c2cc3nc(-c4ccccc4)cc(-c4ccccc4)n3n2)C1` [Example 23, N-(1-Methylazetidin-3-yl)-5,7-diphenylpyrazolo[1,5-a]pyrimidine-2-carboxamide]: 52%, 960 nM and 49 nM.
On the same counts, the results for `O=C(NCCCc1c[nH]cn1)c1cc2nc(-c3ccccc3)cc(-c3ccccc3)n2n1` [Example 27, N-(3-(1H-Imidazol-4-yl)propyl)-5,7-diphenylpyrazolo[1,5-a]pyrimidine-2-carboxamide] are 43%, 49 nM and 15 nM.
Take `O=C(NCCCn1ccnc1)c1cc2nc(-c3ccccc3)cc(-c3ccccc3)n2n1` [Example 43, N-(3-(1H-Imidazol-1-yl)propyl)-5,7-diphenylpyrazolo[1,5-a]pyrimidine-2-carboxamide]: at SMOX [1], the “SMOx % recovery CETSA” value stood at 74%. Also, the IC50 on hPAOX came to 739 nM; on SMOX [2], 10 nM.
On the same counts, the results for `CC(C)Nc1cc(-c2ccccc2)nc2cc(C(=O)NCCCn3ccnc3)nn12` [Example 57, N-(3-(1H-Imidazol-1-yl)propyl)-7-(isopropylamino)-5-phenylpyrazolo[1,5-a]pyrimidine-2-carboxamide] are 1%, 4440 nM and 176 nM.
The matching figures for `O=C(NCCCn1ccnc1)c1cc2nc(-c3ccccc3)cc(N3CCCCC3)n2n1` [Example 58, N-(3-(1H-Imidazol-1-yl)propyl)-5-phenyl-7-(piperidin-1-yl)pyrazolo[1,5-a]pyrimidine-2-carboxamide]: 29%, 6850 nM and 24 nM.
On the same counts, the results for `O=C(NCCCn1ccnc1)c1cc2nc(-c3ccccc3)cc(N3CCCC(F)C3)n2n1` (stereo not drawn) [Example 62, N-(3-(1H-Imidazol-1-yl)propyl)-7-(3-fluoropiperidin-1-yl)-5-phenylpyrazolo[1,5-a]pyrimidine-2-carboxamide] are 87%, 6040 nM and 49 nM.
Turning to `O=C(NCCCn1ccnc1)c1cc2nc(-c3ccccc3)cc(N3CCC(F)CC3)n2n1` [Example 63, N-(3-(1H-Imidazol-1-yl)propyl)-7-(4-fluoropiperidin-1-yl)-5-phenylpyrazolo[1,5-a]pyrimidine-2-carboxamide], the “SMOx % recovery CETSA” value at SMOX [1] amounted to 6%. Also, the figures for the IC50 on hPAOX and at SMOX [2] were 2330 nM and 241 nM, respectively.
The matching figures for `CN1CC(NC(=O)c2cc3nc(-c4ccccc4)cc(N4CCCCC4)n3n2)C1` [Example 68, N-(1-methylazetidin-3-yl)-5-phenyl-7-(piperidin-1-yl)pyrazolo[1,5-a]pyrimidine-2-carboxamide trifluoroacetate]: 39%, 5880 nM and 147 nM.
For `O=C(NCCCn1ccnc1)c1cc2nc(-c3ccccc3)cc(-c3cccc(F)c3)n2n1` [Example 78, N-(3-(1H-imidazol-1-yl)propyl)-7-(3-fluorophenyl)-5-phenylpyrazolo[1,5-a]pyrimidine-2-carboxamide], the “SMOx % recovery CETSA” value on SMOX [1] turned out to be 0%. For the same molecule, the IC50 at hPAOX came to 1410 nM; at SMOX [2], 36 nM.
For `Cc1cccc(-c2cc(-c3ccccc3)nc3cc(C(=O)NCCCn4ccnc4)nn23)c1` [Example 81, N-(3-(1H-imidazol-1-yl)propyl)-5-phenyl-7-(m-tolyl)pyrazolo[1,5-a]pyrimidine-2-carboxamide], the “SMOx % recovery CETSA” value on SMOX [1] is 0%. The values for the IC50 at hPAOX and on SMOX [2] were 123 nM and 122 nM, respectively.
On the same counts, the results for `O=C(NCCCn1ccnc1)c1cc2nc(-c3ccccc3)cc(-c3ccc(F)cc3)n2n1` [Example 86, N-(3-(1H-imidazol-1-yl)propyl)-7-(4-fluorophenyl)-5-phenylpyrazolo[1,5-a]pyrimidine-2-carboxamide] are 40%, 2190 nM and 24 nM.
The matching figures for `O=C(NCCCn1ccnc1)c1cc2nc(-c3ccccc3)cc(-c3ccc(O)cc3)n2n1` [Example 88, N-(3-(1H-imidazol-1-yl)propyl)-7-(4-hydroxyphenyl)-5-phenylpyrazolo[1,5-a]pyrimidine-2-carboxamide]: 0%, 1570 nM and 102 nM.
On the same counts, the results for `N#Cc1cccc(-c2cc(-c3ccccc3)nc3cc(C(=O)NCCCn4ccnc4)nn23)c1` [Example 89, N-(3-(1H-imidazol-1-yl)propyl)-7-(3-cyanophenyl)-5-phenylpyrazolo[1,5-a]pyrimidine-2-carboxamide] are 0%, 879 nM and 159 nM.

The record behind these values is patent publication US20250161307A1, “PYRAZOLOPYRIMIDINES AS MODULATORS OF SPERMINE OXIDASE” (Janssen Pharmaceutica NV, priority 2022, published 2025).
